Measurements: patent US20250186379A1, “METHODS AND AGENTS FOR DECREASING INSULIN RESISTANCE” (Whitehead Institute for Biomedical Research, priority 2021, published 2025)
Entries after “also recorded” stand apart in the source; their conditions may differ.

Key:
Format in all cases: cell-based, human
[1] = system: insulin signaling proteins (IR, IRS1, AKT, ERK, GSK3); assay: Immunoblot of phosphorylated over total insulin signaling proteins in HepG2 cells
Experimental: Cells were washed with ice-cold PBS and lysed in Cell Lytic M (Sigma-Aldrich C2978) supplemented with protease and phosphatase inhibitors (Sigma Aldrich, 11873580001 and 4906837001) directly on the wells. Lysates were placed into a 1.5 ml tube and mixed at 4° C. for 20 min and then centrifuged at 13,000 rpm for 15 min. Protein concentration was determined using a BCA Protein Assay Kit (Life Technologies, 23250) according to the manufacturer's instructions. Equal amounts of protein (5-50 μg per sample) were separated on 10% or 12% Bis-Tris gels in 5% XT MOPS running buffer (Bio-Rad Laboratories, 1610788) at 100V until dye front reached the end of the gel. Protein was then transferred to a 0.45 μM PVDF membrane (Millipore, IPVH00010) in ice cold transfer buffer (25 mM Tris, 192 mM glycine, 20% methanol) at 300 mA for 1 hour or 250 mA for 2 hours at 4° C. After the transfer, membranes were blocked in 5% non-fat milk (LabScientific, M0842) dissolved in TBST (2% Tris HCl pH 8.0, 1.3% 5M NaCl, 0.05% Tween 20) or 5% BSA (VWR, 102643-516) in 1×TBST for 15 min to 1 hour at room temperature shaking. Membranes were then incubated overnight at 4° C. in 1:1000 primary antibody in 5% non-fat milk in TBST or 5% BSA in TBST. BSA was used for immunoblotting phosphorylated proteins, otherwise milk was used. Membranes were then washed three times for 5 min in TBST shaking at room temperature prior to incubation in 1:10,000 secondary antibody in 5% non-fat milk in TBST for 1 hour at room temperature. This was followed by three 10-minute washes in TBST. Membranes were developed with ECL substrate (Thermo Scientific, 34080) and imaged using a CCD camera. Immunoblot quantification was performed using the “analyze gel” tool on Fiji/ImageJ v2.1.0/153c.
The following primary antibodies were used for WB: anti-phosphorylated insulin receptor (Abcam, ab60946 and Cell Signaling 3026), anti-insulin receptor beta (Cell Signaling, 23413; Bethyl, A303-712A or Cell Signaling, 3025), anti-insulin receptor alpha (Cell Signaling, 74118), anti-phosphorylated AKT (Cell Signaling, 4056), anti-AKT (Cell Signaling, 9272), anti-phosphorylated ERK (Cell Signaling, 4377), anti-ERK (Cell Signaling, 9102), anti-beta Actin (Sigma Aldrich, A5441). The following secondary antibodies were used: donkey anti-rabbit IgG (Cytiva Life Sciences, NA934-1ML) and sheep anti-mouse IgG (Sigma Aldrich, NXA931V).
Cells were washed with ice-cold PBS (Life Technologies, AM9625) and lysed in Cell Lytic M (Sigma Aldrich C2978) supplemented with protease and phosphatase inhibitors (Sigma Aldrich, 11873580001 and 4906837001) directly on the wells. Lysates were placed into a 1.5 ml tube and mixed at 4° C. for 20 minutes, sonicated and then centrifuged at 12,000×g for 15 minutes. Super natant was collected and protein concentration was determined using a BCA Protein Assay Kit (Life Technologies, 23250) according to the manufacturer's instructions. Equal amounts of protein (5-50 μg per sample) were separated on 10% or 12% Bis-Tris gels in 5% XT MOPS running buffer (Bio-Rad Laboratories, 1610788) at 100V until dye front reached the end of the gel. Protein was then transferred to a 0.45 μM PVDF membrane (Millipore, IPVH00010) in ice cold transfer buffer (25 mM Tris, 192 mM glycine, 20% methanol) at 300 mA for 1 hour or 250 mA for 2 hours at 4° C. After the transfer, membranes were blocked in either 5% non-fat milk (LabScientific, M0842) dissolved in TBST (2% Tris HCl pH 8.0, 1.3% 5M NaCl, 0.05% Tween 20) or 5% BSA (VWR, 102643-516) in 1×TBST for 15 minutes to 1 hour at room temperature with shaking. Membranes were then incubated overnight at 4° C. in 1:1000 primary antibody (specific antibodies listed below) in 5% non-fat milk in TBST or 5% BSA in TBST. BSA was used for immunoblotting phosphorylated proteins, otherwise milk was used. […]

[2] = system: transcriptional condensates at SMAD7; assay: IR-GFP and SMAD7 intronic RNA FISH colocalization in HepG2 cells
SMAD7 = SMAD7 transcript levels (RNA-seq, RT-qPCR) in HepG2 cells
Experimental: RNA was extracted using TRIzol™ reagent following the manufacturer's instructions (Thermo Fisher Scientific, 15596026). cDNA synthesis was performed using qScript cDNA Supermix according to the manufacturer's instructions, using 1000 ng RNA as input (qScript cDNA SuperMix, QuantaBio—95048-500). qPCR was performed on a Thermo Fisher Scientific QuantStudio 6 machine using Fast SYBR™ Green Master Mix (Thermo Fisher Scientific 4385618). Expression data is presented after calculating the relative expression compared with the housekeeping gene RPLP0, using the equation Relative Quantification (RQ)=100/(2^(Target Gene Ct−RPLP0Ct). When data is reported relative to a sample condition, the condition of reference was set as 1 and the data of the other conditions were reported as a ratio (condition/condition of reference).
RNA sequencing was performed by the Whitehead Institute Genome Technology Core. Libraries were prepared using the KAPA HyperPrep stranded RNA kit following manufacturer's instructions. Samples were sequenced on a HiSeq2500 in High-Output mode generating 50 bases, single-end reads.
RNA-sequencing (RNA-seq) bioinformatics analysis was performed on the Whitehead High-Performance Computing Facility using the nf-core RNA-seq pipeline v1.4.2 (81) with Nextflow v20.04.1. Quality control of .fastq files was performed with FastQC v0.11.8. The reads were single-end and the strandedness was set to reverse. Low quality sequences were trimmed using Trim Galore!v0.6.4. Alignment was performed against the hg19 genome assembly using STAR v2.6.1d (85) and duplicates were marked using Picard MarkDuplicates v2.21.1. Quantification of transcripts using featureCounts v1.6.4 (86). Differential expression analysis was performed using edgeR v3.26.5 (87). deepTools v3.3.1 (88), dupRadar v1.14.0 (89), Qualimap v.2.2.2-dev (90), and MultiQC v1.7 were used for quality control. ERCC92 was used as RNA spike-in.

[3] = insulin-sensitive HepG2 cells, acute insulin stimulation
[4] = insulin resistant cells, acute insulin stimulation

Row | Compound | phosphorylation of GSK3 after insulin stimulation ([1]; cells exposed to pathologic levels (3 nM) of insulin for two days) | phosphorylation of insulin signaling proteins after insulin stimulation ([1]; cells exposed to pathologic levels (3 nM) of insulin for two days vs physiologic (0.1 nM)) | GSK3 phosphorylation ([1]; insulin-sensitive HepG2 cells, 3 nM insulin 5 minutes) | AKT and ERK pathway activation [1, 3] | IR phosphorylation [1, 3] | levels of IR in transcriptional condensates at SMAD7 [2, 4] | colocalization of IR-containing condensates with SMAD7 nascent RNA ([2]; insulin sensitive cells, 0 nM versus 3 nM insulin) | SMAD7 gene expression (SMAD7; [4]) | SMAD7 expression (SMAD7; insulin sensitive cells, before and after insulin stimulation (RNA-seq)) | IRS1 phosphorylation (pIRS1 over total IRS1, western blot) ([1]; insulin-resistant cells + metformin (FIG. 38)) | IR levels in SMAD7 transcriptional condensates ([2]; metformin-treated insulin resistant cells, 3 nM insulin 5 min (FIG. 5D)) | SMAD7 gene expression (SMAD7; metformin-treated insulin resistant cells)
1 | insulin: insulin (Sigma Aldrich, I9278-5ML) used for acute stimulation and chronic physiological or pathological exposure | decreased phosphorylation of GSK3 | reduced phosphorylation of IR, IRS1, AKT and ERK | increased GSK3 phosphorylation | stimulate; also recorded: AKT and ERK pathway activation | stimulate; also recorded: induced IR phosphorylation | did not increase the levels of IR in transcriptional condensates; also recorded: did not cause increased levels of IR in transcriptional condensates | increased colocalization | nor did it cause upregulation of SMAD7 gene expression; also recorded: nor did it upregulate SMAD7 gene expression | upregulated |  |  | 
2 | CN(C)C(=N)N=C(N)N [metformin, reference compound] |  |  |  |  |  |  |  |  |  | partial rescue of IRS1 phosphorylation; also recorded: partially rescues phosphorylation of IRS1 | increased | elevated
